Like-named read-outs stand apart in the source and are kept apart here.
Legend:
[1] = biological target: EphrinB2-EphB1 (immobilized human EphrinB2, 25 nM soluble human EphB1) (Homo sapiens, UniProt P52799+P54762); assay: biochemical; conditions: read-out: % Inhibited (AUC) Association
[2] = biological target: EphB1-EphrinB2 (Homo sapiens, UniProt P52799+P54762); assay: biolayer interferometry, AUC; assay type: binding; conditions: read-out: % inhibition at 3.2 μM
[3] = biological target: T1, human EphB2-His ectodomain - human EphrinB2-Fc ectodomain (EphB2-EphrinB2 tetramer) (Homo sapiens, UniProt P29323+P52799); assay: biolayer interferometry, AUC; assay type: binding; conditions: read-out: % inhibition at 3.2 μM
Target sequence in this assay (P29323 19-543): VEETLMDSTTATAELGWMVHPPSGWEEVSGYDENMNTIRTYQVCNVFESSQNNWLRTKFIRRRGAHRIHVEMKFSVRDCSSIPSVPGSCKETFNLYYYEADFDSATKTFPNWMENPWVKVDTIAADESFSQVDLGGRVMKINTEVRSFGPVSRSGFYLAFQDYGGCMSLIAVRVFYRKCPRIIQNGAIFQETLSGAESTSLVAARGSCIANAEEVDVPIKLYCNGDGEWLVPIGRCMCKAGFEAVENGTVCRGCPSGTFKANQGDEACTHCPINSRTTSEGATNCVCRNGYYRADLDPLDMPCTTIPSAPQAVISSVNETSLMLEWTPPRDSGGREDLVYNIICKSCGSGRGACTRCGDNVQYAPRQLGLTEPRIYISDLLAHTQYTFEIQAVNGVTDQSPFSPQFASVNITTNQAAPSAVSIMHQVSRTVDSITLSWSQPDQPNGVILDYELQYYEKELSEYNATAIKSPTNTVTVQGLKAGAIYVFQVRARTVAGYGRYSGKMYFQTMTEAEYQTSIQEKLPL
Target sequence in this assay (P52799 28-229): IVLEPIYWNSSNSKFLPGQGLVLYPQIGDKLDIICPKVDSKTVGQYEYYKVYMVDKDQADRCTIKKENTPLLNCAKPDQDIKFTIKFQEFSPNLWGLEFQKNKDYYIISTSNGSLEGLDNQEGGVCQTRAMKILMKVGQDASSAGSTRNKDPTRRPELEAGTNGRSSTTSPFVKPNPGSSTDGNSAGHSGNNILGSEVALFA

[4] = biological target: T1, human EphB2-His ectodomain - human EphrinB2-Fc ectodomain (EphB2-EphrinB2 tetramer); assay: biochemical; conditions: EphrinB2-EphB2 IC50 (Absolute, µM)
Target sequence in this assay (P52799 28-229): as above
Target sequence in this assay (P29323 19-543): as the sequence (P29323 19-543) above

[5] = biological target: human EphB4-His ectodomain - human EphrinB2-Fc ectodomain (EphB4-EphrinB2) (Homo sapiens, UniProt P52799+P54760); assay: biolayer interferometry, AUC; assay type: binding; conditions: read-out: % inhibition at 3.2 μM
[6] = biological target: EphrinB2 of mouse pancreatic stellate cells stimulated with mouse EphB2-Fc-His (Mus musculus, UniProt P52800+P54763); assay: % pEphrinB2 by IP and immunoblot; assay type: cell-based
[7] = biological target: T1, human EphB2-His ectodomain - human EphrinB2-Fc ectodomain (EphB2-EphrinB2 tetramer); assay: biolayer interferometry, AUC of concentration series; assay type: binding
Target sequence in this assay (P29323 19-543): as above
Target sequence in this assay (P52799 28-229): as the sequence (P52799 28-229) above

[8] = biological target: T1, human EphB2-His ectodomain - human EphrinB2-Fc ectodomain (EphB2-EphrinB2 tetramer); assay: biochemical
Target sequence in this assay (P29323 19-543): as the sequence (P29323 19-543) above
Target sequence in this assay (P52799 28-229): as the sequence (P52799 28-229) above

EphrinB2-EphB1 (immobilized human EphrinB2, 25 nM soluble human EphB1), sequence (P52799 whole entry): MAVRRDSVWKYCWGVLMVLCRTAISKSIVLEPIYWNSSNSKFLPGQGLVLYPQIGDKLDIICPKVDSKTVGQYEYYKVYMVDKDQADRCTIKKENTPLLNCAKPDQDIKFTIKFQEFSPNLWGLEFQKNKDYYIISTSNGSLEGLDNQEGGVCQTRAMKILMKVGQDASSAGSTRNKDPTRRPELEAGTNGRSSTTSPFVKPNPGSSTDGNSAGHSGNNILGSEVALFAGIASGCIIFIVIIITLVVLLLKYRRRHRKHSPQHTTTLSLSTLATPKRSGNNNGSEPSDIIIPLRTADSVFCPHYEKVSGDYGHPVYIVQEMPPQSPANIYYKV
EphrinB2-EphB1 (immobilized human EphrinB2, 25 nM soluble human EphB1), sequence (P54762 whole entry): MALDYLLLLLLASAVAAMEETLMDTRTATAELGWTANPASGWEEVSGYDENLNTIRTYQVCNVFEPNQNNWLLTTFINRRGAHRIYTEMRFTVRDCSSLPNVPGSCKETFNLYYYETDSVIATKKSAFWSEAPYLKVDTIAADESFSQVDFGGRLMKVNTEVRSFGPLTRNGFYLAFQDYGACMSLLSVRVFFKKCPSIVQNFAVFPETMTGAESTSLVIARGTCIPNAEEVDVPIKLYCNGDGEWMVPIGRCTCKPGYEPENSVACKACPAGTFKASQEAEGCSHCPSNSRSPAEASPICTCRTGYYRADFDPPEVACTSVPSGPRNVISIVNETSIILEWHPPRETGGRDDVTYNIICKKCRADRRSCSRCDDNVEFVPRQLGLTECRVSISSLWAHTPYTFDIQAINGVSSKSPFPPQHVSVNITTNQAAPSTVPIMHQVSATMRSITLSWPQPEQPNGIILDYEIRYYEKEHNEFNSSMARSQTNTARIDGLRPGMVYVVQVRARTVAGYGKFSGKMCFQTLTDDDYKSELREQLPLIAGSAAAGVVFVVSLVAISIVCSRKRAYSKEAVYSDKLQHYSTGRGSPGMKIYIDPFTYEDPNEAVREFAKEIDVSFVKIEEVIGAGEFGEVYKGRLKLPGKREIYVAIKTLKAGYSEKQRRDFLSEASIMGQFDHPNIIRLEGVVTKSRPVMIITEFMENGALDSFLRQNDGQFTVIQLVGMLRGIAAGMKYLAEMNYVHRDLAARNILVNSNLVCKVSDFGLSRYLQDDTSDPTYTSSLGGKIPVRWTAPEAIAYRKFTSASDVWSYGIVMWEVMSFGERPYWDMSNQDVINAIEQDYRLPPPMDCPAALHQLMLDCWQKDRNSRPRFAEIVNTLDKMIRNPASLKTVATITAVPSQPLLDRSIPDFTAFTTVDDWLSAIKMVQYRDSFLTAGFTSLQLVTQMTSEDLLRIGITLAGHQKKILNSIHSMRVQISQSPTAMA
human EphB4-His ectodomain - human EphrinB2-Fc ectodomain (EphB4-EphrinB2), sequence (P54760 16-539): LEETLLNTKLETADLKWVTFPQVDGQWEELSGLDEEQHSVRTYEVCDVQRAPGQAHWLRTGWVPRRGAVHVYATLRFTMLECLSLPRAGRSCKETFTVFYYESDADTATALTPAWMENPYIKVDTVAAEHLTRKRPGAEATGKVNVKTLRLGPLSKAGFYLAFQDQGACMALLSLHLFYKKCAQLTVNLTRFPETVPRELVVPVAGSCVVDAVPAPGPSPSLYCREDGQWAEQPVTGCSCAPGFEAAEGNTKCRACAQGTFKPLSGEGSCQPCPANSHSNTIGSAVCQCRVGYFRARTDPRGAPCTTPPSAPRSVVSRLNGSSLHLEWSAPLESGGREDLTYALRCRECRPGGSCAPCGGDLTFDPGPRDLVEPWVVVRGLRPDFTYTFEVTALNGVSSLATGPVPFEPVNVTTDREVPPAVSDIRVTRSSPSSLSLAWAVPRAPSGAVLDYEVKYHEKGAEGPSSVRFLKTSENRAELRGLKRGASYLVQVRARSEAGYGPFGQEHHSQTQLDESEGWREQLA
human EphB4-His ectodomain - human EphrinB2-Fc ectodomain (EphB4-EphrinB2), sequence (P52799 28-229): as the sequence (P52799 28-229) above
EphB1-EphrinB2, sequence (P54762 18-540 limits assumed): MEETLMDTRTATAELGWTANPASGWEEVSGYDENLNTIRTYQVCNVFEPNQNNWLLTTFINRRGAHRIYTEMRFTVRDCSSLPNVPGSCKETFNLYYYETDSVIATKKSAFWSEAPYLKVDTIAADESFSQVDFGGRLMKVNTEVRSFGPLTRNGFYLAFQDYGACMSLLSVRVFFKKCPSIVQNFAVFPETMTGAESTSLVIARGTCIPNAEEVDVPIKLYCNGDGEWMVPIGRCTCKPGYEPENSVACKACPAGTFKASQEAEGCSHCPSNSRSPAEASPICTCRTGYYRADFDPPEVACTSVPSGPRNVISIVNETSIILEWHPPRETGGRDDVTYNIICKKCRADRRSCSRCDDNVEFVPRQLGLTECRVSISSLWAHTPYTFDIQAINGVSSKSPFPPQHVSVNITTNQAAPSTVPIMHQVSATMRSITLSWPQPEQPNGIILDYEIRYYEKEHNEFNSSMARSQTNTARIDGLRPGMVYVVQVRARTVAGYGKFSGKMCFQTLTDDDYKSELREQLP
EphB1-EphrinB2, sequence (P52799 28-229 limits assumed): as the sequence (P52799 28-229) above
EphrinB2 of mouse pancreatic stellate cells stimulated with mouse EphB2-Fc-His, sequence (P52800 29-336): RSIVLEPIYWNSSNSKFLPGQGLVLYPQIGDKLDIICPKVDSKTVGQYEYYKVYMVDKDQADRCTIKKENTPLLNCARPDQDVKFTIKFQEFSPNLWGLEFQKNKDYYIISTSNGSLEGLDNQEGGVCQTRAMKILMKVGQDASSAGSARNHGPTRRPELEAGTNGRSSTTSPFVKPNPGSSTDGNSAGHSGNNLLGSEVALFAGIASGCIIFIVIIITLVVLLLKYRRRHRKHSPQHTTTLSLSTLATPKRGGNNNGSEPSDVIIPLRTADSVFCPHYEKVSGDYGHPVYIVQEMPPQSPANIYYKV
EphrinB2 of mouse pancreatic stellate cells stimulated with mouse EphB2-Fc-His, sequence (P54763 19-540): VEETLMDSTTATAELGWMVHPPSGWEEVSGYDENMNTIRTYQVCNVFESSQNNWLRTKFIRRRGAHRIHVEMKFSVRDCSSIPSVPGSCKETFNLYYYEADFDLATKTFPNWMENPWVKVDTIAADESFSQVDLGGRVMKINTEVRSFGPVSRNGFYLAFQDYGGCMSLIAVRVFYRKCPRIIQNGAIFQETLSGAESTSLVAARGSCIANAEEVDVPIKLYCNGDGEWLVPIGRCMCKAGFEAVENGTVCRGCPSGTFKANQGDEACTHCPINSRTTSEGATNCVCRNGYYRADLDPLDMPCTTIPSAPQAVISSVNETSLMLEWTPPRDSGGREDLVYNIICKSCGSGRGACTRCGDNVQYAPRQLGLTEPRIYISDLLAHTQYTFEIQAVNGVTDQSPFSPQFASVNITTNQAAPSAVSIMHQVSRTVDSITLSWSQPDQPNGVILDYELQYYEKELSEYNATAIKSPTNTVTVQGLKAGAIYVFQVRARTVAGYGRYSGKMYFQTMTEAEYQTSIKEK

Oc1c(I)cc(CN2CCOCC2)c2cccnc12 [A20-I]
inhibition at 3.2 µM [1]: 32.6%
inhibition at 3.2 µM [2]: 36.6%
inhibition at 3.2 µM [3]: 61.8%
IC50 [4]: > 1.6 µM
inhibition at 3.2 µM [5]: 13.9%

Oc1c(Br)cc(CN2CCN(c3ccc(Br)cc3)CC2)c2cccnc12 [BQPB4]
inhibition at 3.2 µM [1]: 39.1%
IC50 [6]: 1600 nM
Ki [7]: 2.88 nM
IC50 [8]: 280 nM

From paper doi:10.64898/2025.12.08.692997v2 (biorxiv, 2025)
